Results on 13 compounds are retold here after ChEMBL document CHEMBL1136950, “Thiopyrophosphoantigens: solid-phase synthesis and in vitro characterization of a new class of Vgamma9 Vdelta2 T cells activators” (J Med Chem, 2009).

SMILES strings stand for the structures. Calls of active or inactive are those of the source. The rule behind the calls is not given here.

Data set [1] concerns T-cell. Description: Immunostimulatory activity in human Vgamma9/Vdelta2 T cells assessed as TNFalpha production after 12 hrs by ELISA. In kind it is functional, cell-based.
Data set [2] can be described thus: Stability in presence of alkaline phosphatase. Conditions: isolated protein.
Data set [3] is described as follows: Stability in presence alkaline phosphatase after 20 mins by HPLC-MS analysis.
A short description of data set [4]: Stability in presence alkaline phosphatase after 30 mins by HPLC-MS analysis.
Data set [5] can be described thus: Stability in presence alkaline phosphatase after 60 mins by HPLC-MS analysis.
In data set [6] the test system is T-cell. Description: Immunostimulatory activity in human Vgamma9/Vdelta2 T cells assessed as expansion induces at 20 uM. Type of data set: functional, cell-based.

The EC50 is the concentration at which the effect is half-maximal. Regarding `O=P(O)(O)OP(=O)(O)SCc1ccccc1`, in data set [1], the concentration giving a half-maximal response (EC50) was 55 µM. With `CC1(CCSP(=O)(O)OP(=O)(O)O)COC1`, in data set [1], the concentration giving a half-maximal response (EC50) came to 14 µM.

`O=P(O)(O)OP(=O)(O)SCCCCCl`: in data set [1], the concentration for a half-maximal effect (EC50) was determined as 100 µM. The same measure, in the same setting: for `C=CCCCCCSP(=O)(O)OP(=O)(O)O` the value was 6.3 µM. On the same count and under the same terms, for `O=P(O)(O)OP(=O)(O)SCCOCCCl` the value was 0.39 µM; for `N#CCCCCSP(=O)(O)OP(=O)(O)O`, 1 µM; for `O=P(O)(O)OP(=O)(O)SCCOC1CCCCO1` (stereo not drawn), 12 µM. Consider `O=P(O)(O)OP(=O)(O)SCCCCF`, for which the EC50 in data set [1] turned out to be 10.8 µM. For `CCSCCCSP(=O)(O)OP(=O)(O)O`, in data set [1], the EC50 worked out at 0.055 µM. The amount remaining is the share of the starting amount still present when the sample was taken. On to `C=C(C)CCSP(=O)([O-])OP(=O)([O-])[O-].[Na+].[Na+].[Na+]`, for which, in data set [1], the half-maximal effective concentration (EC50) turned out to be 3.75 µM. The Stability in data set [2] turned out to be 94%. The compound also yielded an amount remaining at 20 min in data set [3] of 48%. This compound had an amount remaining at 0.5 h in data set [4] of 54%. In data set [5], the amount remaining at 1 h worked out at 27%. With `C/C(=C\CSP(=O)(O)OP(=O)(O)O)CO`, the concentration giving a half-maximal response (EC50) in data set [1] came to 0.0048 µM. In addition, the result in data set [6] was Active. Consider `CC(O)CCSP(=O)(O)OP(=O)(O)O` (stereo not drawn), for which, in data set [1], the EC50 worked out at 75 µM.

Consider `O=P(O)(O)OP(=O)(O)SCCC1OCCO1`, for which the EC50 in data set [1] amounted to 0.056 µM.
